Assay results from ChEMBL document CHEMBL1131977, “Synthesis and in vitro activity of new oxazolidinone antibacterial agents having substituted isoxazoles” (1999).
≈ marks a conversion by molar mass, not a printed value.

Assays:
Type in all cases: functional
[1] = test system: Staphylococcus epidermidis; assay: In vitro antibacterial activity against Staphylococcus epidermis (S.e.1) […].
[2] = test system: Staphylococcus epidermidis; assay: In vitro antibacterial activity against Staphylococcus epidermis (S.e.2) C2235.
Streptococcus pyogenes [3] = assay: In vitro antibacterial activity against Streptococcus pyogenes C6003 (S.p.2).
Staphylococcus aureus [4] = assay: In vitro antibacterial activity against methicillin-susceptible Staphylococcus aureus (MSSA) C2214.
Enterococcus faecalis = assay: In vitro antibacterial activity against Enterococcus faecalis C6291 (E.f.1).
Staphylococcus aureus [5] = assay: In vitro antibacterial activity against ciprofloxacin-resistant Staphylococcus aureus (CRSA) C6043.
Staphylococcus aureus [6] = assay: In vitro antibacterial activity against Staphylococcus aureus (S. a.) ATCC 29213.
Streptococcus pyogenes [7] = assay: In vitro antibacterial activity against Streptococcus pyogenes ATCC 8668 (S.p.1).
Enterococcus faecium [8] = assay: In vitro antibacterial activity against vancomycin-resistant Enterococcus faecium C6487 (VRE).
Enterococcus faecium [9] = assay: In vitro antibacterial activity against Enterococcus faecium C6301 (E.f.2).
Staphylococcus aureus [10] = assay: In vitro antibacterial activity against methicillin-resistant Staphylococcus aureus (MRSA) C6068.

SMILES | MIC [1] [µg/mL] | MIC [2] [µg/mL] | MIC (Streptococcus pyogenes [3]) [µg/mL] | MIC (Staphylococcus aureus [4]) [µg/mL] | MIC (Enterococcus faecalis) [µg/mL] | MIC (Staphylococcus aureus [5]) [µg/mL] | MIC (Staphylococcus aureus [6]) [µg/mL] | MIC (Streptococcus pyogenes [7]) [µg/mL] | MIC (Enterococcus faecium [8]) [µg/mL] | MIC (Enterococcus faecium [9]) [µg/mL] | MIC (Staphylococcus aureus [10]) [µg/mL]
CC(=O)NC[C@H]1CN(c2ccc(N3CCN(C(=O)c4cc(COC(N)=O)no4)CC3)c(F)c2)C(=O)O1 | 0.5 (≈ 0.991 µM) | 0.5 (≈ 0.991 µM) | 0.5 (≈ 0.991 µM) | 2 (≈ 3.96 µM) | 1 (≈ 1.98 µM) | 2 (≈ 3.96 µM) | 2 (≈ 3.96 µM) | 0.5 (≈ 0.991 µM) | 1 (≈ 1.98 µM) | 1 (≈ 1.98 µM) | 1 (≈ 1.98 µM)
CC(=O)NC[C@H]1CN(c2ccc(N3CCN(Cc4cc(-c5ccc(F)cc5)no4)CC3)c(F)c2)C(=O)O1 | 2 (≈ 3.91 µM) | 4 (≈ 7.82 µM) | 2 (≈ 3.91 µM) | 8 (≈ 15.6 µM) | 4 (≈ 7.82 µM) | 8 (≈ 15.6 µM) | 8 (≈ 15.6 µM) | 2 (≈ 3.91 µM) | 4 (≈ 7.82 µM) | 4 (≈ 7.82 µM) | 4 (≈ 7.82 µM)
CC(=O)NC[C@H]1CN(c2ccc(N3CCN(C(=O)c4cc(C)no4)CC3)c(F)c2)C(=O)O1 | 0.5 (≈ 1.12 µM) | 1 (≈ 2.24 µM) | 0.5 (≈ 1.12 µM) | 8 (≈ 18 µM) | 4 (≈ 8.98 µM) | 4 (≈ 8.98 µM) | 4 (≈ 8.98 µM) | 0.5 (≈ 1.12 µM) | 2 (≈ 4.49 µM) | 2 (≈ 4.49 µM) | 2 (≈ 4.49 µM)
CC(=O)NC[C@H]1CN(c2ccc(N3CCN(C(=O)c4cc(C(F)(F)F)no4)CC3)c(F)c2)C(=O)O1 | 2 (≈ 4 µM) | 2 (≈ 4 µM) | 1 (≈ 2 µM) | 4 (≈ 8.01 µM) | 4 (≈ 8.01 µM) | 4 (≈ 8.01 µM) | 4 (≈ 8.01 µM) | 1 (≈ 2 µM) | 4 (≈ 8.01 µM) | 4 (≈ 8.01 µM) | 2 (≈ 4 µM)
CC(=O)NC[C@H]1CN(c2ccc(N3CCN(Cc4cc(-c5ccc(Oc6ccccc6)cc5)no4)CC3)c(F)c2)C(=O)O1 | 2 (≈ 3.42 µM) | 4 (≈ 6.83 µM) | 1 (≈ 1.71 µM) | 8 (≈ 13.7 µM) | 4 (≈ 6.83 µM) | 8 (≈ 13.7 µM) | 8 (≈ 13.7 µM) | 1 (≈ 1.71 µM) | 4 (≈ 6.83 µM) | 4 (≈ 6.83 µM) | 4 (≈ 6.83 µM)
CC(=O)NC[C@H]1CN(c2ccc(N3CCN(C(=O)c4cc(-c5cnsn5)no4)CC3)c(F)c2)C(=O)O1 | 1 (≈ 1.94 µM) | 1 (≈ 1.94 µM) | 0.5 (≈ 0.97 µM) | 4 (≈ 7.76 µM) | 2 (≈ 3.88 µM) | 2 (≈ 3.88 µM) | 4 (≈ 7.76 µM) | 0.5 (≈ 0.97 µM) | 1 (≈ 1.94 µM) | 2 (≈ 3.88 µM) | 1 (≈ 1.94 µM)
CC(=O)NC[C@H]1CN(c2ccc(N3CCN(C(=O)c4cc(Cl)no4)CC3)c(F)c2)C(=O)O1 | 1 (≈ 2.15 µM) | 1 (≈ 2.15 µM) | 1 (≈ 2.15 µM) | 4 (≈ 8.59 µM) | 2 (≈ 4.29 µM) | 2 (≈ 4.29 µM) | 4 (≈ 8.59 µM) | 1 (≈ 2.15 µM) | 2 (≈ 4.29 µM) | 2 (≈ 4.29 µM) | 1 (≈ 2.15 µM)
COc1cc(CN2CCN(c3ccc(N4C[C@H](CNC(C)=O)OC4=O)cc3F)CC2)on1 | 2 (≈ 4.47 µM) | 4 (≈ 8.94 µM) | 1 (≈ 2.23 µM) | 8 (≈ 17.9 µM) | 8 (≈ 17.9 µM) | 8 (≈ 17.9 µM) | 8 (≈ 17.9 µM) | 1 (≈ 2.23 µM) | 4 (≈ 8.94 µM) | 4 (≈ 8.94 µM) | 4 (≈ 8.94 µM)
CC(=O)NC[C@H]1CN(c2ccc(N3CCN(C(=O)CO)CC3)c(F)c2)C(=O)O1 [EPEREZOLID] | 0.5 (≈ 1.27 µM) | 1 (≈ 2.54 µM) | 0.5 (≈ 1.27 µM) | 2 (≈ 5.07 µM) | 2 (≈ 5.07 µM) | 2 (≈ 5.07 µM) | 2 (≈ 5.07 µM) | 0.25 (≈ 0.634 µM) | 1 (≈ 2.54 µM) | 1 (≈ 2.54 µM) | 1 (≈ 2.54 µM)
